Results on two compounds are retold here after article PMC11683865, “CACHE Challenge #1: Docking with GNINA Is All You Need” (Journal of Chemical Information and Modeling, 2024).

A word on the Kd: it is the constant that tells how readily two partners part at equilibrium.

Read-outs that look alike come from different tables or passages of the source.

This test deals with T1, Leucine-rich repeat serine/threonine-protein kinase 2 (LRRK2), WD-40 repeat (WDR) domain (Homo sapiens, UniProt Q5S007).
T1 construct: WD-40 repeat (WDR) domain
T1 sequence (Q5S007 2142-2527): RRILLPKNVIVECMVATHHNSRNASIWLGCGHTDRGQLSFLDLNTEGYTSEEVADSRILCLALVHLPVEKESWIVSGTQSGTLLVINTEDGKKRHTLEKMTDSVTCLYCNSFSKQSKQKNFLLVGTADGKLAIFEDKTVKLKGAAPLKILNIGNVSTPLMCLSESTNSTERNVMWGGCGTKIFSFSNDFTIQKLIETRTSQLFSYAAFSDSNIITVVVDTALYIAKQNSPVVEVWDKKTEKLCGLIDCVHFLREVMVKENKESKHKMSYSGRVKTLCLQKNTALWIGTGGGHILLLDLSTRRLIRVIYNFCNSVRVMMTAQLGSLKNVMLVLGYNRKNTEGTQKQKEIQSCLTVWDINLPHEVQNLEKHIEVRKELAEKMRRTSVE
Put plainly: SPR. The class given is binding.

In turn, `O=C(CN1CCC2(C1)C(=O)Nc1ccccc12)Nc1ccc2c(c1)CCC2` (centres unmarked) [CACHE_1181_33] had a Kd greater than 100 µM.
`O=C(NCc1ccc[nH]c1=O)N1CCC(CCc2ccc(F)cc2F)CC1` [CACHE_1181_50]: the Kd (read-out: Kd) was greater than 100 µM.
